Experimental data reported in paper PMC8532147, “Dual Stimuli-Responsive Dynamic Covalent Peptide Tags: Toward Sequence-Controlled Release in Tumor-like Microenvironments” (Journal of the American Chemical Society, 2021).
Bridge positions count the residues as written; N and C are the ends. Square brackets hold non-standard residues; d marks the D form. Peptide text beside a SMILES is read from it. I, II: the chains in the order shown. Phe(4-B(OH)2) = N[C@@H](Cc1ccc(B(O)O)cc1)C(=O)O; Dopa = N[C@@H](Cc1ccc(O)c(O)c1)C(=O)O

Key:
in vitro [1] = type: in vitro ADME; conditions: calf (bovine), cells or culture medium
Method: Next, the stability of 2Ox in glucose containing solutions were tested since it is known that phenyl boronic acids interact with sugars.[11]2Ox was incubated in glucose solution (1 g/mL) or […] DMEM cell media (1 g/mL), which was used in the subsequent cell studies. The analysis was performed for up to 3 days and quantitative analysis was obtained using single ion monitoring (SIM) of m/z of 2Ox (m/z = 664, 388) in LC-ESI-MS to improve sensitivity in detection (SI, Figure S20). Fmoc-Phe-OH was used as an internal standard. […] The amount of 2Ox decreased by around 20% in low glucose DMEM cell culture media after a day of incubation (SI, Figure S20). The decrease is presumably due to the disulfide exchange with free thiols inside the media (10% FCS and cysteine according to manufacturer’s specifications). Nevertheless, 2Ox is sufficiently stable to potential thiol exchange for subsequent biological studies.
(§1) The UV (280 nm) signals were integrated and normalized against the Fmoc-Phe standard as well as the SIM for 664 against the SIM of 388. The relative area was then plotted against the incubation time.
(§2) Figure S 20: Stability of 2Ox in glucose solution (GS) and low glucose cell media (LGM) detected by UV -Vis and ESI-MS. […]
(§3) expected due to free thiols in the media (FCS and cysteine).
(§4) 11. Stability in cytosol under oxidative/reductive conditions
(§5) Stability in liver cytosol […]

in vitro [2] = type: in vitro ADME; conditions: s9 or cytosol
Method: Such differences in the physiological concentration of GSH have been exploited for controlled release. Thus, the GSH-induced cleavage of 1 mM of 2Ox was probed by incubation in commercially available liver cytosols spiked with physiologically relevant concentrations of GSH:GSSG (1:0.025 and 10:0.25 mM). The analysis was performed for up to 60 min and quantitative analysis was obtained using SIM in LC-MS (2Ox, m/z = 1328, 664) with Fmoc-Phe-OH as an internal standard (SI, Figure S22). […] On the other hand, at a concentration of 10 mM (molar ratio 10:1) the reaction was slightly slower due to longer equilibration time. […] Therefore, although the oxidized complex is stable over a longer period in serum (Figure 6a), GSH release could be induced in cytosolic conditions in cancer cells (Figure 6b), which would be important for controlled release as a drug delivery system.
as §1, §2, §3, §4, §5

[3] = Stability under oxidative conditions (0.1% hydrogen peroxide); type: physicochemical; conditions: LC-MS SIM
Method: We further determined the stability of the hybridized sequences under oxidative conditions. The oxidized complex, 2Ox was incubated with 0.1% hydrogen peroxide ([…]). Aliquots were analyzed via LC-MS over different time intervals up to 60 min (SI, Figure S23) using SIM detection. Besides monitoring the decrease in the m/z of 2Ox, SIM also offers the possibility to identify degradation products and allowed us to map the chemical processes involved in the oxidative condition implemented. […] We observed complete conversion to compound 3 (Figure 6c,d). […]
12. Fluorescence quenching assay
Four stock solutions were prepared: 5 mM OSCSO, 2 μM DL488 -BSCSB in a phosphate buffer (100 mM, pH = 6.0, 2.5 mM TCEP) and 5 mM OSCSO, 2 µM DL488-BSCSB in a phosphate buffer (100 mM, pH = 7.4, 2.5 mM TCEP). […] FQA was measured immediately.
The procedure was repeated 3 times both for pH 6.0 and 7.4. Each point on the graph represents mean average of normalized fluorescence for one concentration from the series and error bars represent standard […]
The NMR spectra were recorded on a Bruker AVANCE III 850 MHz spectrometer with a 5 mm triple resonance TXI 1H/13C/15N probe equipped wit h a z-gradient. All spectra were measured at 298 K. The spectra were analyzed using Bruker TopSpin 3.6.1. […]

SMILES: NC(=O)[C@H](Cc1ccc(B(O)O)cc1)NC(=O)[C@H](CO)NC(=O)[C@H](CSSC[C@H](NC(=O)[C@H](CO)NC(=O)[C@@H](N)Cc1ccc(O)c(O)c1)C(=O)N[C@@H](CO)C(=O)N[C@@H](Cc1ccc(O)c(O)c1)C(N)=O)NC(=O)[C@H](CO)NC(=O)[C@@H](N)Cc1ccc(B(O)O)cc1 [2Ox] (I: H-[Phe(4-B(OH)2)]SCS[Phe(4-B(OH)2)]-NH2 / II: H-[Dopa]SCS[Dopa]-NH2; disulfide I:3-II:3)
- metabolised at 24 h (in vitro [1]): ~20%
- remaining at 10 min, 1 mM (in vitro [2]): 80%
- starting material left ([3]; 1 mM in ammonium bicarbonate with 0.1% hydrogen peroxide (30 μM), after 10 min): no starting material is left
- dissociation into the single peptide sequences ([3]; 0.1% hydrogen peroxide (30 μM), up to 60 min): did not dissociate
